In patent US6914045B2, “Glycopeptide antibiotics” (Wyeth Holdings Corporation, priority 2001, dated 2005):
Numbered stars: 1 amine (or outer) side, 2 acyl side, 3 side chain; on linkers, the order of the positions; unused ones are H or OH. Square brackets hold non-standard residues; d marks the D form. Peptide text beside a SMILES is read from it. ξ: configuration not given here. X1 = N=C1NCC(C(O)C(N[*:1])C(=O)[*:2])N1C1OC(CO)C(O)C(O)C1O; ξEnduracididine(βξ-OH,4'ξ) = N=C1NCC(C(O)C(N)C(=O)O)N1; Tyr(3-NO2) = N[CH](Cc1ccc(O)c([N+](=O)[O-])c1)C(=O)O; ξPhe(βξ-Me) = CC(c1ccccc1)C(N)C(=O)O

Columns and labels:
Assay in all cases: in vitro antibacterial evaluation, MIC by broth dilution
Type in all cases: cell-based
Escherichia coli = conditions: 18 hours at 35° C.
In short: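 Broth dilution MIC per NCCLS M7-A2 in Mueller-Hinton II medium, inoculum 5×10^5 CFU/mL, antibiotic range 64-0.06 μg/mL. MIC taken as lowest concentration inhibiting growth.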

Staphylococcus sp. = test system: Staphylococcus sp.
In short: (§1)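 Read-out: the lowest concentration at which the test strain fails to grow. Serial dilutions (64-0.06 μg/mL) in Muller-Hinton II […], 5×10^5 CFU/mL inoculum, NCCLS M7-A2 procedure.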

Enterococcus sp. = test system: Enterococcus sp.
In short: as §1

Streptococcus sp. = test system: Streptococcus sp.
In short: as §1

[1] = broth dilution, 18 hours at 35° C.

Di-N-(4-tert-butylbenzyl)-cyclo[glycyl-β-methylphenylalanyl-O-(4-O-hexopyranosylhexopyranosyl)tyrosyl-3-(2-iminoimidazolidin-4-yl)seryl-3-(3-hexoopyranosyl-2-iminoimidazolidin-4-yl)serylseryl] [Example 60a]
>128 µg/mL: MIC Escherichia coli (ATCC 25922) (Escherichia coli) | MIC Escherichia coli (GC 4559) (Escherichia coli) | MIC Staphylococcus aureus (ATCC 29213) (Staphylococcus sp.; strain ATCC 29213; broth dilution, 18 hours at 35° C.) | MIC Staphylococcus aureus (GC 1131) (Staphylococcus sp.; strain GC 1131; broth dilution, 18 hours at 35° C.) | MIC Staphylococcus aureus (GC 3051) (Staphylococcus sp.; strain GC 3051; broth dilution, 18 hours at 35° C.) | MIC Staphylococcus aureus (GC 3053) (Staphylococcus sp.; strain GC 3053; broth dilution, 18 hours at 35° C.) | MIC Staphylococcus aureus (GC 4541) (Staphylococcus sp.; strain GC 4541; broth dilution, 18 hours at 35° C.) | MIC Staphylococcus aureus (GC 4542) (Staphylococcus sp.; strain GC 4542; broth dilution, 18 hours at 35° C.) | MIC Staphylococcus aureus-SMITH (GC 4543) (Staphylococcus sp.; strain GC 4543; broth dilution, 18 hours at 35° C.) | MIC Staphylococcus aureus (GC 4544) (Staphylococcus sp.; strain GC 4544; broth dilution, 18 hours at 35° C.) | MIC Staphylococcus aureus (GC 4545) (Staphylococcus sp.; strain GC 4545; broth dilution, 18 hours at 35° C.) | MIC Staphylococcus haemolyticus (GC 4546) (Staphylococcus sp.; strain GC 4546; broth dilution, 18 hours at 35° C.) | MIC Coagulase Negative Staphylococcus (GC 4547) (Staphylococcus sp.; strain GC 4547; broth dilution, 18 hours at 35° C.) | MIC Coagulase Negative Staphylococcus (GC 4548) (Staphylococcus sp.; strain GC 4548; broth dilution, 18 hours at 35° C.) | MIC Coagulase Negative Staphylococcus (GC 4549) (Staphylococcus sp.; strain GC 4549; broth dilution, 18 hours at 35° C.) | MIC Coagulase Negative Staphylococcus (GC 4551) (Staphylococcus sp.; strain GC 4551; broth dilution, 18 hours at 35° C.) | MIC Coagulase Negative Staphylococcus (GC 6257) (Staphylococcus sp.; strain GC 6257; broth dilution, 18 hours at 35° C.) | MIC Enterococcus faecalis (ATCC 29212) (Enterococcus sp.; Enterococcus faecalis (ATCC 29212); broth dilution, 18 hours at 35° C.) | MIC Enterococcus faecalis (GC 4552) (Enterococcus sp.; Enterococcus faecalis (GC 4552); broth dilution, 18 hours at 35° C.) | MIC Enterococcus faecalis (GC 4554) (Enterococcus sp.; Enterococcus faecalis (GC 4554); broth dilution, 18 hours at 35° C.) | MIC Enterococcus faecalis (GC 6189) (Enterococcus sp.; Enterococcus faecalis (GC 6189); broth dilution, 18 hours at 35° C.) | MIC Enterococcus faecium (GC 2243) (Enterococcus sp.; Enterococcus faecium (GC 2243); broth dilution, 18 hours at 35° C.) | MIC Enterococcus faecium (GC 4556) (Enterococcus sp.; Enterococcus faecium (GC 4556); broth dilution, 18 hours at 35° C.) | MIC Enterococcus faecalis (ATCC 29212) (Enterococcus sp.; [1]) | MIC Enterococcus faecalis (GC 2242) (Enterococcus sp.; [1]) | MIC Enterococcus faecalis (GC 2691) (Enterococcus sp.; [1]) | MIC Enterococcus faecalis (GC 3059) (Enterococcus sp.; [1]) | MIC Enterococcus faecalis (GC 4552) (Enterococcus sp.; [1]) | MIC Enterococcus faecalis (GC 4554) (Enterococcus sp.; [1]) | MIC Enterococcus faecalis (GC 6189) (Enterococcus sp.; [1]) | MIC Enterococcus faecium (GC 2243) (Enterococcus sp.; [1]) | MIC Enterococcus faecium (GC 4556) (Enterococcus sp.; [1]) | MIC Enterococcus faecalis (GC 2242) (Enterococcus sp.; broth dilution, 18 hours at 35° C.; strain GC 2242) | MIC Enterococcus faecalis (GC 2691) (Enterococcus sp.; broth dilution, 18 hours at 35° C.; strain GC 2691) | MIC Enterococcus faecalis (GC 3059) (Enterococcus sp.; broth dilution, 18 hours at 35° C.; strain GC 3059) | MIC Streptococcus agalactiae (GC 4564) (Streptococcus sp.; [1]) | MIC Streptococcus pneumoniae (ATCC 6301) (Streptococcus sp.; [1]) | MIC Streptococcus pyogenes (GC 4563) (Streptococcus sp.; [1]) | MIC Streptococcus pneumoniae (ATCC 6301) (Streptococcus sp.; broth dilution, 18 hours at 35° C.; strain ATCC 6301) | MIC Streptococcus pyogenes (GC 4563) (Streptococcus sp.; broth dilution, 18 hours at 35° C.; strain GC 4563) | MIC Streptococcus agalactiae (GC 4564) (Streptococcus sp.; broth dilution, 18 hours at 35° C.; strain GC 4564)
16 µg/mL: MIC Escherichia coli (GC 4560) (Escherichia coli)
64 µg/mL: MIC Streptococcus pneumoniae (GC 1894) (Streptococcus sp.; [1]) | MIC Streptococcus pneumoniae (GC 1894) (Streptococcus sp.; broth dilution, 18 hours at 35° C.; strain GC 1894)
128 µg/mL: MIC Enterococcus avium (GC 4558) (Enterococcus sp.; Enterococcus avium (GC 4558); broth dilution, 18 hours at 35° C.) | MIC Enterococcus faecalis (GC 4553) (Enterococcus sp.; Enterococcus faecalis (GC 4553); broth dilution, 18 hours at 35° C.) | MIC Enterococcus faecium (GC 4557) (Enterococcus sp.; Enterococcus faecium (GC 4557); broth dilution, 18 hours at 35° C.) | MIC Enterococcus avium (GC 4558) (Enterococcus sp.; [1]) | MIC Enterococcus faecalis (GC 4553) (Enterococcus sp.; [1]) | MIC Enterococcus faecium (GC 4557) (Enterococcus sp.; [1]) | MIC Streptococcus pneumoniae (GC 4565) (Streptococcus sp.; [1]) | MIC Streptococcus pneumoniae (GC 4565) (Streptococcus sp.; broth dilution, 18 hours at 35° C.; strain GC 4565)

CC(c1ccccc1)C1NC(=O)CNC(=O)C(CO)NC(=O)C(C(O)C2CNC(=N)N2C2OC(CO)C(O)C(O)C2O)NC(=O)C(C(O)C2CNC(=N)N2)NC(=O)C(Cc2ccc(O)c([N+](=O)[O-])c2)NC1=O (stereo not drawn) [Example 8, Cyclo[glycyl-β-methylphenylalanyl-3-nitrotyrosyl-3-(2-iminoimidazolidin-4-yl)seryl-3-(3-hexopyranosyl-2-iminoimidazolidin-4-yl)serylseryl]] (cyclo(G[ξPhe(βξ-Me)][Tyr(3-NO2)][ξEnduracididine(βξ-OH,4'ξ)][X1]S); configuration not given here)
>128 µg/mL: MIC Escherichia coli (ATCC 25922) (Escherichia coli; strain ATCC 25922, broth dilution) | MIC Escherichia coli (GC 4559) (Escherichia coli; strain GC 4559, broth dilution) | MIC Escherichia coli (GC 4560) (Escherichia coli; strain GC 4560, broth dilution) | MIC Staphylococcus aureus (ATCC 29213) (Staphylococcus sp.; broth dilution, 18 hours at 35° C.; strain ATCC 29213) | MIC Staphylococcus aureus (GC 1131) (Staphylococcus sp.; broth dilution, 18 hours at 35° C.; strain GC 1131) | MIC Staphylococcus aureus (GC 4541) (Staphylococcus sp.; broth dilution, 18 hours at 35° C.; strain GC 4541) | MIC Staphylococcus aureus (GC 4542) (Staphylococcus sp.; broth dilution, 18 hours at 35° C.; strain GC 4542) | MIC Staphylococcus aureus-SMITH (GC 4543) (Staphylococcus sp.; broth dilution, 18 hours at 35° C.; strain GC 4543) | MIC Staphylococcus aureus (GC 4544) (Staphylococcus sp.; broth dilution, 18 hours at 35° C.; strain GC 4544) | MIC Staphylococcus aureus (GC 4545) (Staphylococcus sp.; broth dilution, 18 hours at 35° C.; strain GC 4545) | MIC Staphylococcus haemolyticus (GC 4546) (Staphylococcus sp.; broth dilution, 18 hours at 35° C.; strain GC 4546) | MIC Coagulase Negative Staphylococcus (GC 4547) (Staphylococcus sp.; broth dilution, 18 hours at 35° C.; strain GC 4547) | MIC Coagulase Negative Staphylococcus (GC 4548) (Staphylococcus sp.; broth dilution, 18 hours at 35° C.; strain GC 4548) | MIC Coagulase Negative Staphylococcus (GC 4549) (Staphylococcus sp.; broth dilution, 18 hours at 35° C.; strain GC 4549) | MIC Coagulase Negative Staphylococcus (GC 4551) (Staphylococcus sp.; broth dilution, 18 hours at 35° C.; strain GC 4551) | MIC Coagulase Negative Staphylococcus (ID-3941) (Staphylococcus sp.; broth dilution, 18 hours at 35° C.; strain ID-3941) | MIC Enterococcus faecalis (ATCC 29212) (Enterococcus sp.; strain ATCC 29212; broth dilution, 18 hours at 35° C.) | MIC Enterococcus faecalis (GC 2242) (Enterococcus sp.; strain GC 2242; broth dilution, 18 hours at 35° C.) | MIC Enterococcus faecium (GC 2243) (Enterococcus sp.; strain GC 2243; broth dilution, 18 hours at 35° C.) | MIC Enterococcus faecalis (GC 4552) (Enterococcus sp.; strain GC 4552; broth dilution, 18 hours at 35° C.) | MIC Enterococcus faecalis (GC 4553) (Enterococcus sp.; strain GC 4553; broth dilution, 18 hours at 35° C.) | MIC Enterococcus faecalis (GC 4554) (Enterococcus sp.; strain GC 4554; broth dilution, 18 hours at 35° C.) | MIC Enterococcus faecium (GC 4556) (Enterococcus sp.; strain GC 4556; broth dilution, 18 hours at 35° C.) | MIC Enterococcus faecium (GC 4557) (Enterococcus sp.; strain GC 4557; broth dilution, 18 hours at 35° C.) | MIC Enterococcus avium (GC 4558) (Enterococcus sp.; strain GC 4558; broth dilution, 18 hours at 35° C.) | MIC Streptococcus agalactiae (GC 4564) (Streptococcus sp.; strain GC 4564; broth dilution, 18 hours at 35° C.) | MIC Streptococcus pneumoniae (GC 4565) (Streptococcus sp.; strain GC 4565; broth dilution, 18 hours at 35° C.) | MIC Streptococcus pyogenes (ID-3187) (Streptococcus sp.; strain ID-3187; broth dilution, 18 hours at 35° C.)
